# From patent US9226912B2, “Acetyltanshinone IIA (ATA) as anticancer agent” (Nanyang Technological University, priority 2011, dated 2016)
# Tests used:
# HeLa cells = assay: ATA-induced cell death by cell counting under a microscope; format: cell-based; conditions: 10 μM or 20 μM ATA, 24 h or 48 h, YFP-Bcl-2 transfected HeLa
# Description: HeLa cells were treated with 10 μM ATA for 12, 24, 36, and 48 h. The β-tubulin protein was probed as a loading control. […] HeLa cells were pre-treated with 2 μM pan-caspase inhibitor (z-VAD-fmk) for 2 h before ATA addition. Then 10 μM or 20 μM ATA were added. After 24 h and 48 h treatment, the number of died cells was counted under a microscope. (* p<0.01, compared with cells treated with ATA only). Control: cells without any treatment.
# Overexpression of Bcl-2 inhibited ATA-induced cell death. HeLa cells transfected with either yellow fluorescent protein (YFP) (vector control) or YFP-Bcl-2 (Bcl-2) were treated with ATA at 10 or 20 μM. The percentage of cell death from YFP-positive cells was determined by cell counting under a fluorescence microscope. (* p<0.01, compared with vector control groups).
# The inventors of the present invention have shown for the first time that ATA can activate the apoptotic pathway in cancer cells. […]
# HeLa cells transfected with YFP-Bcl-2 or YFP only were treated with 10 μM or 20 μM ATA. After 24 h or 48 h treatment, the percentage of cell death in each sample was calculated by counting the numbers of fluorescence-positive cells either live (attached with a normal cell morphology) or dead (detached with a shrunk morphology) under a fluorescence microscope. […]
# BT474 = assay: Growth inhibition at 72 h by MTT assay
structure (smiles),measurement,setting,value
"CC(=O)Oc1c(OC(C)=O)c2c(C)coc2c2ccc3c(c12)CCCC3(C)C [ATA, 1,6,6-trimethyl-8,9-dihydro-10,11-diacetoxyl-7H-naphtho[1,2-g][1]benzofuran]",percentage of cell death in Bcl-2 over expressing cells versus normal Bcl-2 level,HeLa cells,significantly lower
same,IC50 ratio of tamoxifen/ATA,"BT474; BT474 (ER+/HER2+), 72 h",6.2
same,IC50,"BT474; Homo sapiens, BT-474, 72 h",1000 nM
same,inhibition at 3.13 µM,"BT474; Homo sapiens, BT-474, 72 h, read-out: growth inhibition rate",146%
